Compound: O=C(c1cc(Cc2n[nH]c(=O)c3ccccc23)ccc1F)N1CCN(C(=O)C2CC2)CC1 [Olaparib/AZD2281]
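Note: breast cancer and non-malignant breast epithelial cell lines, Deep Dye Drop or Dye Drop imaging, nine half-log doses, GR normalized to time-zero plates and DMSO-only controls.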

Going from MDAMB453 to PDX1328, the “GR50, 72 h” value rises from 1.67 µM to greater than 10 µM.

SUM185PE and SUM190PT cannot be ordered by “GR50, 72 h” value: greater than 10 µM for the first, greater than 10 µM for the second.

Going from UACC812 to UACC893, the “GR50, 72 h” value rises from 8.69 µM to greater than 10 µM.

Compound: CC(=O)c1c(C)c2cnc(Nc3ccc(N4CCNCC4)cn3)nc2n(C2CCCC2)c1=O

CAL851 and HCC1187 cannot be ordered by “GR50, 72 h” value: greater than 3.16 µM for the first, greater than 3.16 µM for the second.

First: HCC1428
Second: HCC1500
The “GR50, 72 h” value of the first is lower: 0.073 µM for the first, greater than 3.16 µM for the second.

HCC1954 and MDAMB157 cannot be ordered by “GR50, 72 h” value: greater than 3.16 µM for the first, greater than 3.16 µM for the second.

First: MDAMB175VII
Second: MDAMB330
The “GR50, 72 h” value of the first is 9.3-fold lower: 0.00212 µM for the first, 0.0198 µM for the second.

First: MDAMB361
Second: MDAMB453
The “GR50, 72 h” value of the first is 2.2-fold lower: 0.0196 µM for the first, 0.0428 µM for the second.

Compared with PDX1328, SUM185PE is higher in “GR50, 72 h” value: 0.168 µM for the first, greater than 3.16 µM for the second.

First: SUM190PT
Second: UACC812
The “GR50, 72 h” value of the first is 2.4-fold higher: 0.0436 µM for the first, 0.0179 µM for the second.

In the case of UACC893, the “GR50, 72 h” value was 0.0209 µM.

Compound: CN(C)C(=O)c1cc2cnc(Nc3ccc(N4CCNCC4)cn3)nc2n1C1CCCC1 [LEE011/Ribociclib]

CAL851 and HCC1187 cannot be ordered by “GR50, 72 h” value: greater than 10 µM for the first, greater than 10 µM for the second.

Going from HCC1954 to MDAMB330, the “GR50, 72 h” value falls from greater than 10 µM to less than 0.001 µM.

Going from MDAMB361 to MDAMB453, the “GR50, 72 h” value rises from less than 0.001 µM to 0.0388 µM.

Going from PDX1328 to SUM185PE, the “GR50, 72 h” value rises from 0.349 µM to greater than 10 µM.

First: SUM190PT
Second: UACC812
The “GR50, 72 h” value of the first is 2-fold higher: 0.0246 µM for the first, 0.0124 µM for the second.

In the case of UACC893, the “GR50, 72 h” value was 0.0051 µM.

Compound: CCNC(=O)c1noc(-c2cc(C(C)C)c(O)cc2O)c1-c1ccc(CN2CCOCC2)cc1 [Luminespib/NVP-AUY922]

Compared with CAL851, HCC1187 is 1.8-fold lower in “GR50, 72 h” value: 0.00652 µM for the first, 0.00363 µM for the second.

Compared with HCC1428, HCC1500 is 3-fold higher in “GR50, 72 h” value: 0.00286 µM for the first, 0.00847 µM for the second.

Going from HCC1954 to MDAMB157, the “GR50, 72 h” value falls from 0.0103 µM to 0.00418 µM (2.5-fold).

Going from MDAMB175VII to MDAMB330, the “GR50, 72 h” value falls from 0.00398 µM to 0.00239 µM (1.7-fold).

Compared with MDAMB361, MDAMB453 is 2.2-fold lower in “GR50, 72 h” value: 0.00714 µM for the first, 0.0033 µM for the second.

PDX1328 and SUM185PE are within 1.5-fold of each other in “GR50, 72 h” value: 0.00288 µM for the first, 0.00341 µM for the second.

SUM190PT and UACC812 are within 1.5-fold of each other in “GR50, 72 h” value: 0.00558 µM for the first, 0.00518 µM for the second.

In the case of UACC893, the “GR50, 72 h” value was 0.00468 µM.

Compound: COc1cccc2c1C(=O)c1c(O)c3c(c(O)c1C2=O)C[C@@](O)(C(=O)CO)C[C@@H]3O[C@H]1C[C@H](N)[C@H](O)[C@H](C)O1 [Doxorubicin]

First: CAL851
Second: HCC1187
The “GR50, 72 h” value of the first is 4.6-fold higher: 0.00552 µM for the first, 0.00119 µM for the second.

Going from HCC1428 to HCC1500, the “GR50, 72 h” value rises from 0.00474 µM to 0.0163 µM (3.4-fold).

First: HCC1954
Second: MDAMB157
The “GR50, 72 h” value of the first is 2.2-fold higher: 0.00718 µM for the first, 0.00323 µM for the second.

MDAMB175VII and MDAMB330 are within 1.5-fold of each other in “GR50, 72 h” value: 0.00311 µM for the first, 0.00368 µM for the second.

First: MDAMB361
Second: MDAMB453
The “GR50, 72 h” value of the first is 2.1-fold higher: 0.0123 µM for the first, 0.00587 µM for the second.

Going from PDX1328 to SUM185PE, the “GR50, 72 h” value rises from 0.024 µM to greater than 3.16 µM.

Going from SUM190PT to UACC812, the “GR50, 72 h” value falls from 0.025 µM to 0.00203 µM (12-fold).

For UACC893, the “GR50, 72 h” value was 0.0106 µM.

Compound: O=C(CCCCCCC(=O)Nc1ccccc1)NO [Vorinostat]

CAL851 and HCC1187 are within 1.5-fold of each other in “GR50, 72 h” value: 1.2 µM for the first, 1.07 µM for the second.

HCC1428 and HCC1500 are within 1.5-fold of each other in “GR50, 72 h” value: 0.835 µM for the first, 0.96 µM for the second.

HCC1954 and MDAMB157 are within 1.5-fold of each other in “GR50, 72 h” value: 1.43 µM for the first, 1.1 µM for the second.

First: MDAMB175VII
Second: MDAMB330
The “GR50, 72 h” value of the first is 2.8-fold lower: 0.546 µM for the first, 1.55 µM for the second.

MDAMB361 and MDAMB453 are within 1.5-fold of each other in “GR50, 72 h” value: 0.762 µM for the first, 0.944 µM for the second.

Compared with PDX1328, SUM185PE is 10-fold higher in “GR50, 72 h” value: 0.687 µM for the first, 6.86 µM for the second.

First: SUM190PT
Second: UACC812
The “GR50, 72 h” value of the first is 2.8-fold lower: 0.402 µM for the first, 1.12 µM for the second.

In the case of UACC893, the “GR50, 72 h” value was 3.72 µM.

Compound: COc1cc2c(Oc3ccc4[nH]c(C)cc4c3F)ncnc2cc1OCCCN1CCCC1 [Cediranib/AZD2171]

CAL851 and HCC1428 are within 1.5-fold of each other in “GR50, 72 h” value: 2.38 µM for the first, 3.17 µM for the second.

HCC1500 and HCC1954 are within 1.5-fold of each other in “GR50, 72 h” value: 3.86 µM for the first, 4.08 µM for the second.

Compared with MDAMB157, MDAMB175VII is 5.5-fold higher in “GR50, 72 h” value: 0.825 µM for the first, 4.54 µM for the second.

First: MDAMB330
Second: MDAMB361
The “GR50, 72 h” value of the first is 2.2-fold higher: 4.86 µM for the first, 2.22 µM for the second.

MDAMB453 and PDX1328 are within 1.5-fold of each other in “GR50, 72 h” value: 2.79 µM for the first, 4.04 µM for the second.

First: SUM185PE
Second: SUM190PT
The “GR50, 72 h” value of the first is lower: 0.0358 µM for the first, greater than 10 µM for the second.

First: UACC812
Second: UACC893
The “GR50, 72 h” value of the first is 6.3-fold lower: 1.04 µM for the first, 6.59 µM for the second.

Compound: CN(C)C/C=C/C(=O)NC1=CC=C(C=C1)C(=O)NC2=CC=CC(=C2)NC3=NC=NC(=C3)C4=CNC5=CC=CC=C54 [THZ-P1-2]

Compared with HCC1954, MDAMB175VII is 1.9-fold lower in “GR50, 72 h” value: 5.9 µM for the first, 3.1 µM for the second.

First: PDX1328
Second: SUM185PE
The “GR50, 72 h” value of the first is higher: greater than 10 µM for the first, 5.83 µM for the second.

Compared with SUM190PT, UACC812 is 12-fold higher in “GR50, 72 h” value: 0.303 µM for the first, 3.78 µM for the second.

Compound: Cc1nc(-c2cn3c(n2)-c2ccc(-c4cnn(C(C)(C)C(N)=O)c4)cc2OCC3)n(C(C)C)n1 [Taselisib/GDC0032]

Compared with CAL851, HCC1187 is 2.8-fold higher in “GR50, 72 h” value: 0.0604 µM for the first, 0.168 µM for the second.

Going from HCC1428 to HCC1500, the “GR50, 72 h” value falls from 4.21 µM to 1.88 µM (2.2-fold).

Compared with HCC1954, MDAMB157 is 190-fold higher in “GR50, 72 h” value: 0.00701 µM for the first, 1.36 µM for the second.

First: MDAMB175VII
Second: MDAMB330
The “GR50, 72 h” value of the first is 3-fold lower: 0.00272 µM for the first, 0.00814 µM for the second.

First: MDAMB361
Second: MDAMB453
The “GR50, 72 h” value of the first is 2-fold lower: 0.00177 µM for the first, 0.00346 µM for the second.

Compared with PDX1328, SUM185PE is 31-fold lower in “GR50, 72 h” value: 0.0544 µM for the first, 0.00177 µM for the second.

First: SUM190PT
Second: UACC812
The “GR50, 72 h” value of the first is 15-fold higher: 0.962 µM for the first, 0.0622 µM for the second.

For UACC893, the “GR50, 72 h” value was 0.00346 µM.
